What is called Cmax is the maximum level reached in the sampled fluid or tissue. The AUC(0-t) is exposure summed from dosing to a finite time, without extrapolation to infinity. For orientation: MRT inf means a mean duration of stay, worked out from the concentration-time curve. For orientation: GI50 means the concentration giving 50% growth inhibition. Read a low GI50 as greater sensitivity of the cells.

Here are results for one compound from ChEMBL document CHEMBL4251553, “Synthesis, anticancer evaluation and pharmacokinetic study of novel 10-O-phenyl ethers of dihydroartemisinin” (Eur J Med Chem, 2017).

Series [1] has as its system NCI/ADR-RES. Nature of the series: Cell cycle arrest in human MCF7/ADR cells assessed as accumulation at G2/M phase at 0.5 uM after 24 hrs by propidium iodide staining based flow cytometry (reference value: 27.75%). It is filed as functional.
Series [2] can be described thus: Cmax in Sprague-Dawley rat at 10 mg/kg, iv administered as single dose by LC-MS/MS analysis. It is filed as ADME, organism-based. Further details: dose 10 mg/kg, route intravenous. The note with it: in vivo.
A short description of series [3]: Plasma concentration in Sprague-Dawley rat at 10 mg/kg, iv administered as single dose measured at 2 hrs post dosing by LC-MS/MS analysis. It is filed as ADME, organism-based.
Series [4] deals with NCI/ADR-RES. Description: Cell cycle arrest in human MCF7/ADR cells assessed as accumulation at G0/G1 phase at 1 uM after 48 hrs by propidium iodide staining based flow cytometry (reference value: 38.76%). It counts as functional. A general note: In flow cytometry, cells or beads pass a laser one at a time.
Series [5] in a line: Plasma concentration in Sprague-Dawley rat at 10 mg/kg, iv administered as single dose measured at 0.083 hrs post dosing by LC-MS/MS analysis. It counts as ADME, organism-based.
Series [6] concerns NCI/ADR-RES. Nature of the series: Cell cycle arrest in human MCF7/ADR cells assessed as accumulation at S-phase at 1 uM after 24 hrs by propidium iodide staining based flow cytometry (reference value: 25.87%). It counts as functional.
The nature of series [7]: Plasma concentration in Sprague-Dawley rat at 10 mg/kg, iv administered as single dose measured at 8 hrs post dosing by LC-MS/MS analysis. It counts as ADME, organism-based.
A short description of series [8]: AUC (0 to t) in Sprague-Dawley rat at 10 mg/kg, iv administered as single dose by LC-MS/MS analysis. It is filed as ADME, organism-based. The note with it: in vivo.
The test system of series [9] is MCF7. Nature of the series: Cell cycle arrest in human MCF7 cells assessed as accumulation at sub-G1 phase at 0.5 uM after 24 hrs by propidium iodide staining based flow cytometry (reference value: 1.78%). It is filed as functional.
Series [10] concerns NCI/ADR-RES. Description: Cell cycle arrest in human MCF7/ADR cells assessed as accumulation at G2/M phase at 0.5 uM after 48 hrs by propidium iodide staining based flow cytometry (reference value: 31.94%). It is filed as functional.
Series [11] has as its system NCI/ADR-RES. Description: Cell cycle arrest in human MCF7/ADR cells assessed as accumulation at G2/M phase at 1 uM after 48 hrs by propidium iodide staining based flow cytometry (reference value: 31.94%). It is filed as functional.
Series [12] has as its system MCF7. Nature of the series: Cell cycle arrest in human MCF7 cells assessed as accumulation at G0/G1 phase at 0.5 uM after 24 hrs by propidium iodide staining based flow cytometry (reference value: 57.83%). It is filed as functional.
In series [13] the test system is NCI/ADR-RES. Description: Cell cycle arrest in human MCF7/ADR cells assessed as accumulation at sub-G1 phase at 0.5 uM after 48 hrs by propidium iodide staining based flow cytometry (reference value: 0.25%). It is filed as functional.
Series [14] is described as follows: MRT (0 to infinity) in Sprague-Dawley rat at 10 mg/kg, iv administered as single dose by LC-MS/MS analysis. It counts as ADME, organism-based. The note with it: in vivo.
For series [15], the system named is MCF7. Nature of the series: Cell cycle arrest in human MCF7 cells assessed as accumulation at G2/M phase at 0.5 uM after 48 hrs by propidium iodide staining based flow cytometry (reference value: 24.26%). It counts as functional.
The test system of another series is MDA-MB-231. Nature of the series: Antiproliferative activity against human MDA-MB-231 cells after 96 hrs by MTT assay. It counts as functional. As to conditions: MDA-MB-231, 96 h. (Tetrazolium assays rely on reduction of a dye to a coloured formazan, in cell work by metabolically active cells.)

SMILES strings stand for the structures.

On to `C[C@H]1[C@@H](Oc2ccc(-c3cc(-c4ccccc4)[nH]n3)cc2)O[C@@H]2O[C@@]3(C)CC[C@H]4[C@H](C)CC[C@@H]1[C@@]24OO3`, for which the Activity with NCI/ADR-RES [1] is 26.29%; with NCI/ADR-RES [4], 56.01%; with NCI/ADR-RES [6], 9.75%; with MCF7 [9] it was 0.44%; in the series with NCI/ADR-RES [10], 30.15%; in the series on NCI/ADR-RES [11], 23.47%. Also, the Activity with MCF7 [12] is 70.95%; in the series with NCI/ADR-RES [13], 2.81%; with MCF7 [15], 17.38%. The compound further returned a Cmax in series [2] of 4460 ng/mL. In series [3], the concentration at 2 h was 227 ng/mL. The compound also returned a concentration at 0.083 h in series [5] of 4460 ng/mL. This compound also yielded a concentration at 8 h in [7] of 34.1 ng/mL. The same compound returned an exposure AUC(0-t) in series [8] of 2910 ng·h/mL. For the same compound, the MRT inf in [14] was 2.28 h. The compound further returned a 50% growth inhibitory concentration (GI50) with MDA-MB-231 of 240 nM.
